Six molecules from patent US20230339889A1, “DERIVATIVES OF 2-OXO-N-(4-(PYRIMIDIN-4-YLOXY/THIO)PHENYL)-1,2-DIHYDROPYRIDINE-3-CARBOXAMIDE FOR USE AS PROTEIN KINASE INHIBITORS FOR THERAPY” (AUCENTRA THERAPEUTICS PTY LTD, priority 2020, published 2023) can be followed below.

Molecules are shown by their SMILES.

The target in this test is T1, Mer (Homo sapiens, UniProt Q12866).
T1 construct: purchased Eurofins Discovery (Kinase Profiler service)
T1 sequence (Q12866 21-999): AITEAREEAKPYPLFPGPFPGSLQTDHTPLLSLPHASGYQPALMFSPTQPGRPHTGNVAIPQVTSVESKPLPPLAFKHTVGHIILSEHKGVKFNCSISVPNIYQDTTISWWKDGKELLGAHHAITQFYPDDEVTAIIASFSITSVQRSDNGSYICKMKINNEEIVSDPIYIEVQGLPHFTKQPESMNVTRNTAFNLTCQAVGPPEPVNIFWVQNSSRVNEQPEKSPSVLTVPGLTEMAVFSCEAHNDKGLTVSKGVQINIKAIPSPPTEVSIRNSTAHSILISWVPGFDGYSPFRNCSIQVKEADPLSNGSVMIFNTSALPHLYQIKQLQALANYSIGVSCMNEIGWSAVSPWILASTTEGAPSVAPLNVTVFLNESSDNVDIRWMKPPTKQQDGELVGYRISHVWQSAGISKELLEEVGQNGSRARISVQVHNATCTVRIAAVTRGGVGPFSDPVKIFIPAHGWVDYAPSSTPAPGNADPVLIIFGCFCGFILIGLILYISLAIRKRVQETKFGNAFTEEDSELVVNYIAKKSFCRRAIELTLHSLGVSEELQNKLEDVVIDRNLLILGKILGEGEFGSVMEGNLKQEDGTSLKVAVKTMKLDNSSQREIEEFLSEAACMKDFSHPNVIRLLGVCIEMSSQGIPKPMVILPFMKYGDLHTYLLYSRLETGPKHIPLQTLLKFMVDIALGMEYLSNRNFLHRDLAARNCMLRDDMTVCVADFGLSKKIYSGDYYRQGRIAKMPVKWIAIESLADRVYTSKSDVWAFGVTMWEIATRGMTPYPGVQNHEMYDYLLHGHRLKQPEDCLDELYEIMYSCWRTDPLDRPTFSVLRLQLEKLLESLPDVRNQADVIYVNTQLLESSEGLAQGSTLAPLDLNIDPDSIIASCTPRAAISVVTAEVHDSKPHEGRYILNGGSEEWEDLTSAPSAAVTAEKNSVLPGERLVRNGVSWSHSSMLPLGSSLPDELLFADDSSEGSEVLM
Kind of test: Filter-binding radiometric kinase activity assay (KinaseProfiler, Eurofins). Format: biochemical. The note with it: 1 µM compound; read-out: % Residual enzymatic activity at 1 µM Mer.

For `Nc1ncnc(Oc2ccc(NC(=O)c3cccn(-c4ccc(F)cc4)c3=O)cc2)c1F` [Cmpd 6, N-(4-((6-amino-5-fluoropyrimidin-4-yl)oxy)phenyl)-1-(4-fluorophenyl)-2-oxo-1,2-dihydropyridine-3-carboxamide], the remaining activity at 1 µM worked out at 14%. With `Nc1ncnc(Oc2ccc(NC(=O)c3cccn(-c4ccc(F)cc4)c3=O)c(F)c2)c1F` [Cmpd 7, N-(4-((6-amino-5-fluoropyrimidin-4-yl)oxy)-2-fluorophenyl)-1-(4-fluorophenyl)-2-oxo-1,2-dihydropyridine-3-carboxamide] the figure was 4%; with `Nc1ncnc(Oc2ccc(NC(=O)c3cccn(-c4ccc(F)cc4)c3=O)c(F)c2)c1Cl` [Cmpd 5, N-(4-((6-amino-5-chloropyrimidin-4-yl)oxy)-2-fluorophenyl)-1-(4-fluorophenyl)-2-oxo-1,2-dihydropyridine-3-carboxamide], 0%. In the case of `Nc1ncnc(Oc2ccc(NC(=O)c3cccn(-c4ccc(F)cc4)c3=O)cc2)c1Cl` [Cmpd 4, N-(4-((6-amino-5-chloropyrimidin-4-yl)oxy)phenyl)-1-(4-fluorophenyl)-2-oxo-1,2-dihydropyridine-3-carboxamide], the remaining activity at 1 µM stood at 19%. The figure for `Nc1ncnc(Oc2ccc(NC(=O)c3cccn(-c4ccc(F)cc4)c3=O)cc2F)c1F` [Cmpd 1, N-(4-((6-amino-5-fluoropyrimidin-4-yl)oxy)-3-fluorophenyl)-1-(4-fluorophenyl)-2-oxo-1,2-dihydropyridine-3-carboxamide] is 12%; for `Nc1ncnc(Oc2ccc(NC(=O)c3cccn(-c4ccc(F)cc4)c3=O)cc2F)c1Cl` [Cmpd 3, N-(4-((6-amino-5-chloropyrimidin-4-yl)oxy)-3-fluorophenyl)-1-(4-fluorophenyl)-2-oxo-1,2-dihydropyridine-3-carboxamide] it is 6%.
